Minimal effective concentration, IC50 and MYC levels data for two compounds are collected here from US20240101538A1, “PROTEIN-PROTEIN INTERACTION MODULATORS OF AURORA KINASE A AND THEIR USE IN THE PREVENTION AND/OR TREATMENT OF CANCER” (EBERHARD KARLS UNIVERSITÄT TÜBINGEN, priority 2020, published 2024).

The structures appear in SMILES notation. Like-named read-outs stand apart in the source and are kept apart here. A value given as a limit tells only on which side of the number the result lay.

In one experiment the test system is NMCdkn2a^ARF−/− cells. Briefly: Colony formation assay on NMCdkn2a^ARF−/− cells. The class given is cell-based, murine. The settings on record: Mus musculus, 120 h, 5 days, read-out: EC (NMCdkn2a^ARF−/−). The source says: To evaluate the effect of small molecules equipped with R-spine interacting moieties, the inventors screened a focused library of proprietary p38a MAP-Kinase inhibitors which were equipped with R-spine interacting pharmacophores. To this end, the inventors utilized a screening system as developed in Dauch et al.^2 The screening system is based on colony formation assays of cell lines isolated from Nras-driven, Trp53-deficient murine HCCs, whose development is dependent on MYC (NMP53^−/− cells), as well as Nras-driven, Cdkn2a^ARF-deficient murine HCCs, which develop independently of MYC (NMCdkn2a^ARF−/− cells). Importantly, NMP53^−/− cells are sensitive to AURKA inhibitors, which induce a conformational shift in AURKA, whereas NMCdkn2a^ARF−/− are not sensitive to such compounds.
For Colony Formation Assays, cells were seeded at a density of 50 000 cells per 6 well and next day treated with a 2-fold dilution series of the indicated compounds or the highest corresponding DMSO concentration as control. After 5 days, the cells were fixed with a 10% formaldehyde solution for 30 min, washed once with water, stained with a 0.5% crystal violet solution for 30 min and washed twice with water. The compounds effective concentration (EC) was determined according to the lowest concentration in the dilution series, that inhibited cell growth substantially. The resulting benzamide containing hit structure 1, with a twofold selectivity towards NMP53^−/− cells (effective concentration on NMP53^−/− cells (EC): 2 μM, EC on Cdkn2a^ARF−/−: 4 μM, FIG. 1), served as the inventors' starting point for further compound development.

The next experiment deals with AURKA (Homo sapiens (Human), UniProt O14965). In words: Radioisotope filter binding assay (HotSpotSM; ReactionBiology) for AURKA kinase inhibition. The class given is biochemical. The source says:
Table 2 summarizes the EC values of different compounds of this invention determined by colony formation assays on NMP53^−/− and NMCdkn2a^ARF−/− cells, as well as the corresponding IC50 values for the kinase inhibition of AURKA, determined by radioisotope filter binding assay (HotSpotSM; ReactionBiology). Most compounds further show a strong selectivity for NMP53^−/− cells, which is indicated by a lower EC concentration of a particular compound required for inhibiting cell growth of NMP53^−/− cells compared to NMCdkn2a^ARF−/− cells.

For the next experiment, the system named is MYC. Briefly: Western blot analysis of cellular MYC levels in NMP53^−/− cells. The class given is cell-based, murine. The settings on record: 8 h after treatment with increasing concentrations. The procedure: A. Western blot analysis of MYC and AURKA in tumor cells (NMP53/cells) 8 h after treatment with increasing concentrations of compound 2c [N-(5-((4-(1H-pyrazole-4-yl)benzyl)amino)-2-fluorophenyl)-3-(furan-2-yl)propanamide]. Vinculin served as loading control (n=2) B. Western blot analysis of MYC and AURKA in tumor cells (NMP53^−/− cells) 8 h after treatment with increasing concentrations of compound 3a [N-(2-fluoro-5-((4-(1-methyl-1H-pyrazole-4-yl)benzyl)amino)phenyl)-3-(furan-2-yl)propanamide]. Vinculin served as loading control (n=2). […]
For western blot analysis, 2×10^6 cells were seeded per 10 cm dish and next day treated with the indicated compound concentrations. […] After addition of 4× Laemmli buffer (200 mM Tris-HCl pH 6.8, 8% SDS, 4% (3-mercaptoethanol, 40% glycerol, 0.33% bromophenol blue) the lysates were boiled for 5 min at 95° C. For western blot analysis, proteins were separated by SDS-polyacrylamide electrophoresis (using 25 μg of each sample) and transferred onto PVDF Immobilon-P membranes (Millipore). The blots were incubated with antibodies specific to MYC (Abeam ab32072, 1:1 000), AURKA (Abeam ab13824, 1:1 000) and Vinculin (Sigma Aldrich V9131-2 mL 1:10 000), followed by peroxidase-conjugated secondary antibodies. Proteins were detected by ChemiDoc MP Imaging System (Bio-Rad) using Clarity Western ECL Substrate (Bio-Rad).
(Immunoblotting shows a protein as a band on a membrane.)

Setting [1] is: lowest concentration of 2-fold dilution series that inhibited cell growth substantially.

AURKA, sequence (O14965 whole entry): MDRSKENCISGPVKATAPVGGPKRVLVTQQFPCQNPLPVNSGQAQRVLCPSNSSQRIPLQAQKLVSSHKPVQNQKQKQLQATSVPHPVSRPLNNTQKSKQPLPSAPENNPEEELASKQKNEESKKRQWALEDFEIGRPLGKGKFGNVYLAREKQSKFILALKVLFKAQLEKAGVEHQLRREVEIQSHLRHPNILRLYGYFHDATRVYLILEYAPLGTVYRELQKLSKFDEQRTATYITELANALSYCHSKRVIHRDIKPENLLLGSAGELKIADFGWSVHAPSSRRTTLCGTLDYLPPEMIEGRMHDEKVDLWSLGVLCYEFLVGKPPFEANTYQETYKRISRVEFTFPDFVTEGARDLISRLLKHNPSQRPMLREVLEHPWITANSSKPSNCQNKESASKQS

For orientation: IC50 means the point on the concentration scale where inhibition reaches its midpoint. Read a low IC50 as higher potency. Turning to `O=C(CCc1ccco1)Nc1cc(NCc2ccc(-c3cn[nH]c3)cc2)ccc1F` [Compound 2c, N-(5-((4-(1H-pyrazole-4-yl)benzyl)amino)-2-fluorophenyl)-3-(furan-2-yl)propanamide], the minimal effective concentration in the experiment on NMCdkn2a^ARF−/− cells (setting [1]) is 1 µM; with NMCdkn2a^ARF−/− cells, over 1 µM. Also, the IC50 on AURKA stood at 27.6 nM. Further, the MYC levels entry in the experiment with MYC was “reduced in a concentration dependent manner”.
The matching figures for `Cn1cc(-c2ccc(CNc3ccc(F)c(NC(=O)CCc4ccco4)c3)cc2)cn1` [Compound 3a, N-(2-fluoro-5-((4-(1-methyl-1H-pyrazole-4-yl)benzyl)amino)phenyl)-3-(furan-2-yl)propanamide]: 0.25 to 0.5 µM, 0.25 to 0.5 µM, over 10000 nM and “reduced in a concentration dependent manner”.
